We go through 62 molecules from a melting point compilation (Tetko et al.; mined from patent text by program, amines drawn as free bases though some values may be those of a salt).

The term melting point denotes the temperature, or range, at which the solid turns liquid.

Regarding `CC(C)C(NC(=O)NCc1cccnc1)C(=O)NC(Cc1ccccc1)C(O)C(Cc1ccccc1)NC(=O)C(NC(=O)NCc1cccnc1)C(C)C` (configuration not stated), the melting point lay within 238 to 239 °C.
As to `Cc1cn(-c2cccc(C(=O)CC(=O)Nc3cc(-c4ccc(F)cc4)ccc3NC(=O)OC(C)(C)C)c2)cn1`, the melting point worked out at 124 °C.
Molecule `COc1cc2c(cc1F)C1(CO2)C(=O)N(Cc2ccccc2)c2ccccc21` (configuration not stated) yielded a melting point of 160 to 162 °C.
Next, `CC(=O)c1sc(Oc2ccc3c(c2)OCO3)c2c1CCc1cnn(C)c1-2`: 102 to 103 °C.
The same measure for `CCCc1c(OC(=S)N(C)C)ccc2c(=O)cc(C(=O)OCC)oc12`: 132 to 134 °C; for `O=C(Nc1ccc(C2CCN(Cc3ccccc3)CC2)cc1)c1ccccc1-c1ccc(C(F)(F)F)cc1`: 134 °C; for `Clc1nc(Cl)nc(N2CC3CCC(CC3)C2)n1`: 153 to 154 °C.
The same measure for `O=C(O)CC1CC(c2ccccc2)c2ccccc21` (configuration not stated): 126 to 129 °C; for `CSc1ncc2cc(Cc3ccccc3)oc2n1`: 69 to 72.2 °C.
On to `O=C(/C=C/c1cccc(Cl)c1)N1CCCC1`, for which the melting point fell in the range of 137 to 138 °C.
The molecule `CC1(C)CC(=O)c2cccc(C(=O)O)c2C1` displayed a melting point of 167 to 168 °C.
For `O=C1CC(C(F)(F)F)Oc2cc(Cl)c(Cl)cc21` (configuration not stated), the melting point fell in the range of 94.5 to 97 °C.
In the case of `COc1ccc(C(=C/C=C/C(=O)NCCCc2cccc3ccncc23)c2ccc(OC)cc2)cc1`, the melting point was in the range of 115 to 118 °C.
The same measure for `CCOC(=O)c1cn(-c2ncns2)c2nc(Cl)c(F)cc2c1=O`: 203 to 206 °C.
In the case of `Cc1c(C)c2c(c(C)c1NC(=O)NCCCO)C(c1ccc(C(C)C)cc1)CO2` (configuration not stated), the melting point fell in the range of 185 to 186 °C.
As to `COC(=O)CSc1ccc(N2CC(CNC(C)=O)OC2=O)cc1F` (configuration not stated), the melting point was in the range of 119 to 120 °C.
The same measure for `CC(C)N1C(Oc2ccccc2[N+](=O)[O-])=NS(=O)(=O)N=C1Oc1ccccc1[N+](=O)[O-]`: 259 to 263 °C.
In the case of `C[C@@H]1C(=O)C[C@H]2C[C@@H]1OO[C@@]2(C)/C=C/c1cc(C(F)(F)F)nc2c(Cl)cc(Cl)cc12`, the melting point amounted to 196 °C.
Next, `NCC1COc2cc(Cl)cc(-c3ccccc3)c2N1` (configuration not stated): 92 °C; `Cc1nc(N2C[C@@H](C)N(Cc3ccc(F)cc3)C2=O)sc1C(=O)NCc1cncs1`: 66 to 69 °C.
`O=Cc1c(Cl)cc(Cl)cc1OCc1ccc(F)cc1` registered a melting point of 107 to 108 °C.
Turning to `COc1cc(-c2ccn(C)n2)cc2oc(=O)c(C)c(C)c12`, the melting point came to 135 °C.
`O=C(O)COc1cccc2c1Cc1sc(SC(c3ccccc3)c3ccccc3)nc1-2` came in with a melting point of 224 to 225 °C.
As for `Cc1cc(C)c(CO)c(-c2ccc(F)c(C)c2)c1`, the melting point lay within 74 to 75 °C.
Next, `COc1ccc2c(c1)C(O)CC21CCN(CCCC(=O)c2ccc(F)cc2)C1` (configuration not stated): 113 to 115 °C; `Cc1nc(C)c(CO)c(C)n1`: 68 °C; `FC(F)(F)c1cc(Br)c2nc(N3CCN(c4ncc(Cl)cc4Cl)CC3)[nH]c2c1`: 176 to 179 °C.
Next, `CCCCCCCCCCCCOc1ccc(CP(=O)(OC)OC)cc1`: 30 to 31 °C; `Cc1cccc2[nH]cnc12`: 141 to 145 °C.
Next, `COc1ccccc1CC1NC(=O)NC1=O` (configuration not stated): 186 °C; `COc1ccccc1N1CCN(CCCNC(=O)Cc2cccc3c(=O)c(C)c(-c4ccccc4)oc23)CC1`: 137 to 140 °C.
Molecule `COc1ccc(Cn2c(=O)c3cc(Cl)ccc3n(CCCCBr)c2=O)cc1` gave a melting point of 146 to 147 °C.
Next, `CC(=O)c1nc2ccc(OC(C)C)cc2cc1O`: 95 to 97 °C; `COc1cc(C)nc(NC(=O)NS(=O)(=O)c2c(C)nsc2OCC(F)(F)F)n1`: 159 to 161 °C; `N#Cc1c(N2CCN(C(=O)c3cccs3)CC2)c2cc(F)cnc2n(CC(=O)c2ccccc2)c1=O`: 262 °C.
With `COc1c(C(=O)O)cc(Cl)c(N)c1C`, the melting point is 151 °C.
Next, `O=C(O)c1ccccc1-c1ccc(CNc2nc(Cl)nc3ccc(Cl)cc23)cc1`: 210 to 240 °C.
`COc1cc2c(cc1OC(C)=O)CCC1C2CCC2(C)C1CCC21OCCO1` (configuration not stated) came in with a melting point of 166 to 167 °C.
For `Cc1ccc(S(=O)(=O)c2ccc(N3CCC4(CC3)OCCO4)cc2)cc1`, the melting point lay within 164 to 165 °C.
The molecule `N#Cc1c(N)nc2ccc([N+](=O)[O-])cc2c1NCc1ccccc1` came in with a melting point of 280 to 283 °C.
The same measure for `CC(C)(C)NC(=O)N1CCn2c(C#N)c(-c3cccc(F)c3)c(C(N)=O)c2C1`: > 217 °C; for `Cc1ccc(C2=NC(C)(C)C(c3ccncc3)C2)cc1` (configuration not stated): 102 °C; for `CC1CC2C3CC(Cl)C4=CC(=O)C=CC4(C)C3(Cl)C(O)CC2(C)C1C(=O)CO` (configuration not stated): 230 °C.
Regarding `COC(=O)C1(Cc2ccc(Br)cc2)CC(=O)CN1C(=O)Nc1cc(Cl)cc(Cl)c1` (configuration not stated), the melting point was determined as 194 °C.
As to `O=C(O)Cc1ccc2c(c1)CCc1ccccc1S2`, the melting point lay within 111 to 112 °C.
The same measure for `COc1cc(OC)cc(N2CCC(c3c(N)nc(N)[nH]c3=O)CC2)c1`: > 250 °C.
The same measure for `CN(C)c1ccc(-c2nc(C#N)c(C#N)nc2C#N)cc1`: 198 to 200 °C.
The same measure for `CCCCc1nc(CO)c(Br)[nH]1`: 160 °C; for `C#CC1(O)CCC2C3CCC4=CC(=O)C=CC4(C)C3CCC21C` (configuration not stated): 218 to 219 °C; for `COC(=O)C1=C(C)NC(C)=C(C(=O)OCCN)C1c1cccc(Cl)c1Cl` (configuration not stated): 166 to 167 °C.
The molecule `O=C(O)c1cn(-c2ccncc2F)c2cc(F)c(F)cc2c1=O` registered a melting point of 271 to 273 °C.
`CC(C)OC(=O)c1cc(-n2c(=O)[nH]c(C(F)(F)F)c(F)c2=O)c(F)cc1Cl` displayed a melting point of 102 to 106 °C.
The same measure for `CC(O)c1cccc2cccc(O)c12` (configuration not stated): 89 to 90 °C; for `Cc1c(C)c(C)c2c(c1C)C=CC(C)(COc1ccc([N+](=O)[O-])cc1)O2` (configuration not stated): 142 to 145 °C; for `O=C1OC(CCCO)C(c2ccccc2)=C1O` (configuration not stated): 148 to 150 °C.
As for `CCOC(=O)c1cc2cc(F)cnc2n1Cc1ccccc1`, the melting point is 74 to 75 °C.
The same measure for `CC(=O)N(C(C)=O)c1ccc(C2=NN(C(C)=O)C(C)Cc3cc4c(cc32)OCO4)cc1` (configuration not stated): 224 to 227 °C; for `CC(C)(C)NC(=O)[C@@H]1C[C@H](Cl)CN1C(=O)[C@@H](O)[C@H](Cc1ccccc1)NC(=O)[C@H](CC(N)=O)NC(=O)c1cc2cc(F)ccc2[nH]1`: 141 to 143 °C.
In turn, `Cn1cc(-c2cc(-c3cccnc3)ccn2)n(-c2ccc(C(C)(C)C#N)cc2)c1=O` returned a melting point of 180 °C.
Next, `CNC1=Nc2ccc(Cl)cc2C(c2ccccc2Cl)=NC1`: 216 to 219 °C; `CC(C)NC(=O)Nc1ccc(Oc2ccc3sncc3c2)c(C(F)(F)F)c1`: 158 °C.
Next, `CCCCc1nc2sccc2[nH]1`: 160 °C.
